# Assay results: patent publication EP1541559A1, “5-SUBSTITUTED ISOQUINOLINE DERIVATIVE” (Asahi Kasei Pharma Corporation, priority 2002, dated 2004)
# Structures can show the parent of a compound that is named as a salt. Where two headings read alike, the source gives them in different places.
# Columns and labels:
# [1] = tested on: Japanese white rabbit; assay: Intraocular pressure reducing action (Test Example 4); format: in vivo; conditions: Oryctolagus cuniculus, topical; 50 µl of test compound (1% aqueous solution) dropped to the left eye, after 2 hours; read-out: Intraocular pressure reducing action (reduction ratio) (%)
# Protocol: A Japanese white rabbit having a body weight of about 2 kg was placed in a positioner and naturalized for one week before the experiment. An ophthalmologic local […] (Benoxil) was administered to the left eye, and then intraocular pressure was measured by using a tonometer (Classic 30, Solan). The initial value of the intraocular pressure was measured, then 50 μl of a test compound (1% aqueous solution) was dropped to the left eye, and after 2 hours, the intraocular pressure was measured. The intraocular pressure reducing action of the test compounds is shown in Table 7 mentioned below as ratios (%) of reduction of intraocular pressure based on the initial value of the intraocular pressure.
# [2] = tested on: Neutrophils; assay: Neutrophil migration inhibitory action, Boyden Chamber, FMLP (Test Example 5); format: cell-based, human; conditions: Homo sapiens, Neutrophil, 0.5 h, FMLP (1 µM), migration at 37°C for 30 minutes; read-out: Neutrophil migration inhibition IC50
# Method in brief: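 Neutrophils from healthy donors' peripheral blood (8 x 10^6/ml) were preincubated 5 min at room temperature with compound. Migrated cells were stained and absorbance read at 595 nm; inhibition (%) was calculated against compound-free wells.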
# [3] = tested on: myosin light chain phosphorylation enzyme (MLCK); assay: Action on myosin light chain phosphorylation enzyme (MLCK) activity, ELISA (second Test Example 7); format: biochemical, chicken; conditions: result in words
# Protocol: A myosin light chain phosphorylation enzyme (MLCK) was purified from chicken gizzard smooth muscle by a conventional method (Yoshida, M., et al., J. Biochem., 99, 1027-1036 (1986)). The myosin regulatory light chain as a substrate was purified from the chicken gizzard smooth muscle by a conventional method (Grand, R. J., et al., Biochem. J., 211, 267-272 (1983)). The MLCK activity was measured by ELISA using pLC1 described in Test Example 1 (Sakurada, K., et al., J. Biochem., 115, 18-21 (1994)). […] In a volume of 100 µ1 each of 20% aqueous phosphoric acid solution was added to each well to terminate the enzymatic reaction. Each well was washed with 25 mM Tris/HCl buffer (TTBS) containing 0.1% Tween 20, and then 100 µl each of pLC1 described in Test Example 1 was added to each well and incubated at room temperature for 90 minutes. Each well was washed with TTBS, and then 100 µl of the HRP-labeled rabbit anti-mouse IgG antibodies (Bio-Rad) were added to each well and incubated at room temperature for 90 minutes. […] 50 µl of 4 N sulfuric acid was added to each well to terminate the reaction, and then absorbance was measured by using an immunoplate reader (Bio-Rad).
# [4] = tested on: ovalbumin-immunized guinea pigs; assay: Respiratory tract constriction suppression action, ovalbumin-induced (Test Example 3); format: in vivo, Hartley guinea pigs; conditions: result in words; test medicament given into hind leg vein after induction with 0.3 mg/kg ovalbumin, measured for 15 minutes
# Protocol: Four-week old Hartley guinea pigs (male) were immunized by intraperitoneal administration of ovalbumin (Sigma, Grade V) in amounts of 1 mg for each animal on the day on which the experiment was started, 3 mg for each animal after 2 days, and 10 mg for each animal after 4 days. Twelve to fourteen days after the final immunization, the ovalbumin-immunized guinea pigs were anesthetized by intraperitoneal administration of about 40 mg/kg of pentobarbital (Somnopentyl), and the tracheas were taken out. Subsequently, a cannula (SP-110, Natsume) was inserted into each trachea, and one end of the cannula was connected to an artificial respirator (Model-b83, Harvard). The aeration conditions were set at 6 ml per kilogram and 60 times per 1 minute. Further, a cannula for medicament administration (JMS wing needle 23G 3/4) was inserted into a hind leg vein. Myoblock (Organon Technica) was administered in an amount of 0.5 mg/kg from the cannula inserted into the hind leg vein to stop the spontaneous breathing, and after 2 or 3 minutes, 0.3 mg/kg of ovalbumin was administered to induce constriction of respiratory tract. The increase of airway resistance value 2 minutes after the induction (measurement apparatuses: pressure transducer TR-603T, respiratory amplifier AR-601G, and recorder RTA-3100, Nihon Kohden Corp.) was confirmed to be above 80 cm H2O or higher, and then, a solution of a test medicament was administered from the cannula inserted into the hind leg vein, and the airway resistance value was continuously measured for 15 minutes after the administration to determine the effect.
# [5] = tested on: myosin regulatory light chain; assay: Action on amount of phosphorylated myosin regulatory light chain in the cells (Test Example 1); format: cell-based, human; conditions: neutrophils of healthy volunteers, reaction with test compound at 25°C for 5 minutes, read-out: Inhibition of myosin regulatory light chain phosphorylation (IC50: µM)
# Method in brief: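 Neutrophil suspension (5 x 10^6/ml, HBSS) reacted 5 min at 25 °C with test compound at various concentrations. TCA-stopped, urea-extracted and run on SDS-PAGE, then immunoblotted with antibody specific for phosphorylated myosin regulatory light chain, detected by HRP/ECL and quantified by densitometry. Result given as % inhibition of phosphorylation.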
structure (smiles),measurement,setting,value
"c1cc(NC2CCCNC2)c2ccncc2c1 (racemic) [Example 29, 3-N-(5-Isoquinolyl)aminopiperidine hydrochloride]",inhibition in vivo at 1 %,[1],18.8%
same,IC50,[2],≤ 40 µM
same,inhibition of MLCK,[3],did not inhibit MLCK
same,constriction of respiratory tract (airway resistance value),[4],significantly improved the constriction of respiratory tract
same,IC50,"[5]; Homo sapiens, Neutrophil, 5 min",≤ 40 µM
same,IC50,[5]; hydrochloride,≤ 20 µM
